Experimental data as given in US6974839B2, “Method of delaying ejaculation” (DMI BioSciences, Inc., priority 2001, dated 2005).
Where a name gives a salt, the structure may show the parent alone.

Tests used:
normal subject = test: Delay of ejaculation after an oral dose taken 30–60 minutes prior to sexual intercourse; type: in vivo, human
Excerpt: […]. […] […]

μ-opioid receptors = details: cited from earlier work
animal models = details: cited from earlier work

SMILES | delay of ejaculation (normal subject; 25 mg orally, 30–60 minutes prior to sexual intercourse, normal subject) | ejaculation/orgasm achieved (normal subject; 100 mg) | side effects associated with the dose (normal subject; doses of 50–100 mg) | affinity of binding to μ-opioid receptors (μ-opioid receptors) | potency in μ-opioid binding relative to tramadol (μ-opioid receptors) | potency in producing analgesia relative to tramadol (animal models)
COc1cccc([C@]2(O)CCCC[C@H]2CN(C)C)c1 (racemic) [tramadol hydrochloride, (±)cis-2-[(dimethylamino)methyl]-1-(3-methoxyphenyl)-cyclohexanol hydrochloride] | 10 to 15 min | sometimes ejaculation/orgasm was not achieved | drowsiness, lightheadedness, dry mouth and a sense of slight euphoria (opioid effect) |  |  | 
CN(C)C[C@H]1CCCC[C@]1(O)c1cccc(O)c1 [M1] |  |  |  | higher affinity binding | 200 times | up to 6 times
COc1cccc(C2(O)CCCCC2CN(C)C)c1 (stereo not shown) [tramadol, 2-[(dimethylamino)methyl]-1-(3-methoxyphenyl)-cyclohexanol] |  |  |  | low affinity binding |  | 
